Results published in PMC10650955, “α-Aminophosphonate inhibitors of metallo-β-lactamases NDM-1 and VIM-2” (RSC Medicinal Chemistry, 2023).
Structures can show the parent of a compound that is named as a salt.

How the values were obtained:
VIM-2 = biological target: T1, VIM-2 (Escherichia coli, UniProt Q5U7L7); assay: Dose rate inhibition studies for IC50 determination, VIM-2 enzymatic assay; assay type: biochemical; conditions: 0.1 nM VIM-2, 100 μM ZnCl2, nitrocefin substrate, inhibitor 0-800 μM, 3 parallel measurements; N.I. = no enzyme inhibitory activity observed
T1 construct: made in house
Experimental: (§1) The […] synthesized compounds 5a–l were tested for their inhibitory activities against NDM-1, VIM-2 (Table 1), and GIM-1 in an in vitro enzymatic assay (ESI ^†).[41] The inhibitory activity was measured using enzyme concentrations of 0.1 nM VIM-2, 10 nM NDM-1 or 1 nM GIM-1, with an excess Zn(II) (100 μM, see Experimental methods), with inhibitor compounds with concentrations from 0 to 800 μM. Each data point was measured in triplicates. […] This is in line with previous reports.[42,43]
(§2) A 100 μl solution with buffer (50 mM HEPES (pH 7.2), 100 μM ZnCl2, 2.5% DMSO), purified enzyme (0.1 nM VIM-2, 10 nM NDM-1 or 1 nM GIM-1) and 800–0 μM inhibitor was incubated in a 96 well plate at 25 °C for 5 min. In addition, the enzyme buffer contained 400 μg ml^−1 bovine serum albumin (BSA) to prevent protein unfolding and loss of activity due to low concentrations.[67,68] 100 μM of the reporter substrate nitrocefin (VIM-2, GIM-1) or imipenem (NDM-1) was added to the enzyme–inhibitor solution and the increase in absorbance at 482 nm (nitrocefin) or 300 nm (imipenem) was recorded on a Spectramax M4 spectrophotometer (Molecular Devices). Each data point was performed in triplicates and the initial velocity for each inhibitor concentration was analyzed by a log [inhibitor] vs. response curve fitting to calculate IC50 in GraphPad Prism 9.2 software.

15N-labelled VIM-2 = biological target: T2, 15N-labelled VIM-2 (Escherichia coli, UniProt Q5U7L7); assay: 1H,15N HSQC NMR chemical shift perturbation titration, VIM-2; assay type: binding; conditions: VIM-2 Kd, 0-16 equiv. ligand, pH 7.0, 310 K
T2 construct: made in house
Experimental: (§3) Solution NMR spectroscopy is a powerful tool to assess protein–ligand interactions under close to physiological conditions.[47] We, therefore, performed NMR chemical shift perturbation (CSP, for details, see section S8, ESI ^†) experiments to identify the amino acid residues of NDM-1 and VIM-2 that are involved in inhibitor binding, making use of the previously published protein assignments.[48,49] Titrations were conducted using ^15N-labelled proteins with 0, 0.5, 1, 2, 4, 8, and 16 equiv. of 5 inhibitors for NDM-1 and of 7 inhibitors for VIM-2.
(§4) For the titrations, ^15N-labelled NDM-1 and ^15N-labelled VIM-2 (250 μM), and titrated ligands (0.5 equiv. in 1 μL) were prepared in the same buffer as the protein (20 mM KPO4, 0.1 mM ZnCl2, pH 7.0 with 10% D2O and 2.5% DMSO-d6). ^1H,^15N HSQC spectra were acquired with 128 × 1024 complex points (F1 × F2) and spectral width of 9090 × 2740 Hz on ^15N-labeled NDM-1/VIM-2 and with every titration step up to 1 : 16 ratio between protein : ligand (0, 0.5, 1, 2, 4, 8, and 16 equiv. of ligand). All experiments were recorded on a Bruker 600 MHz spectrometer at 310 K equipped with a 5 mm TCI cryogenic probe. The NMR data were processed on the MestReNova software with the Mnova Binding plugin. The weighted average chemical shift perturbations (CSP) for the backbone amides were calculated from the observed chemical shift differences in the proton and nitrogen dimensions using the equation (chemical shift scaling factors: FH = 1, FN = 0.156) CSP = Δδ1H,15N = [drawing 13] .
(§5) 7. Chemical shift perturbation histograms
(§6) Chemical shift perturbation was calculated according equation (1) 2
(§7) CSP = Δδ(1H,15N) = √(Δδ1H2 + (1⁄R × Δδ15N2) Rscale = 6.5 (1)
(§8) Where Δδ1H is the chemical shift change for proton dimension, Δδ15N is the chemical shift change for nitrogen dimension, Rscale is a
(§9) The chemical shift perturbations (CSP) were classified as significant (SSP) when the observed Δδ(1H,15N) was greater than the population
(§10) mean plus the standard deviation (µ+1σ) – solid line; (µ+2σ) – dashed line, and (µ+3σ) – dashed line.
(§11) Further on, Kd was calculated according: 3
(§12) ([P]+[L]+Kd)− √([P]+[L]+Kd)2−4[P][L]
(§13) ΔδmaxΔδobs = Δδmax 2[P] (2)
(§14) Where Kd is the dissociation constant, [P] and [L] are protein and ligand concentrations, respectively. Δδmax were estimated in
(§15) MestReNova by extrapolation of the obser ved chemical shift differences Δδobs.

NDM-1 = biological target: T3, NDM-1 (Klebsiella pneumoniae, UniProt C7C422); assay: Dose rate inhibition studies for IC50 determination, NDM-1 enzymatic assay; assay type: biochemical; conditions: Enzyme IC50 NDM-1, 10 nM NDM-1, 100 μM ZnCl2, imipenem substrate, inhibitor 0-800 μM, 3 parallel measurements; N.I. = no enzyme inhibitory activity observed
T3 construct: made in house
T3 sequence (C7C422 29-270 limits assumed): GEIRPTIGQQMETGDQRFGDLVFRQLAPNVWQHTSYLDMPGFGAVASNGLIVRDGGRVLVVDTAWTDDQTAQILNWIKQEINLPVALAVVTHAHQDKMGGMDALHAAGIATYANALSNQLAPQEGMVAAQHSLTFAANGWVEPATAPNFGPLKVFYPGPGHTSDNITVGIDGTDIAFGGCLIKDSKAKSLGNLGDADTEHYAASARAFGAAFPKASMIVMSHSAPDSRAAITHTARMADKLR
Experimental: as §1, §2

15N-labelled NDM-1 = biological target: T4, 15N-labelled NDM-1 (Klebsiella pneumoniae, UniProt C7C422); assay: 1H,15N HSQC NMR chemical shift perturbation titration, NDM-1; assay type: binding
T4 construct: made in house
T4 sequence (C7C422 29-270 limits assumed): as above
Experimental: as §3, §4, §5, §6, §7, §8, §9, §10, §11, §12, §13, §14, §15

O=C(Cc1cccs1)NC(C1CCCCN1)P(=O)(O)O (centres unmarked) [Compound 5i-1, (Piperidin-2-yl(2-(thiophen-2-yl)acetamido)methyl)phos-phonic acid hydrochloride]
Enzyme IC50 VIM-2 (VIM-2): N.I. | Kd (15N-labelled VIM-2): 1500 ± 200 µM | IC50 (NDM-1): 296 ± 87 µM | Kd (15N-labelled NDM-1; Estimated binding constant (Kd), residue 119T, Table S5, per-residue fit, NDM-1 119T): 930 µM | Kd (15N-labelled NDM-1; Estimated binding constant (Kd), residue 124D, Table S5, per-residue fit, NDM-1 124D): 3530 µM | Kd (15N-labelled NDM-1; Estimated binding constant (Kd), residue 127G, Table S5, per-residue fit, NDM-1 127G): 8940 µM | Kd (15N-labelled NDM-1; Estimated binding constant (Kd), residue 159H, Table S5, per-residue fit, NDM-1 159H): 2470 µM | Kd (15N-labelled NDM-1; Estimated binding constant (Kd), residue 160S, Table S5, per-residue fit, NDM-1 160S): 250 µM | Kd (15N-labelled NDM-1; Estimated binding constant (Kd), residue 188G, Table S5, per-residue fit, NDM-1 188G): 490 µM | Kd (15N-labelled NDM-1; Estimated binding constant (Kd), residue 191S, Table S5, per-residue fit, NDM-1 191S): 120 µM | Kd (15N-labelled NDM-1; Estimated binding constant (Kd), residue 194I, Table S5, per-residue fit, NDM-1 194I): 4990 µM | Kd (15N-labelled NDM-1; Estimated binding constant (Kd), residue 197G, Table S5, per-residue fit, NDM-1 197G): 1270 µM | Kd (15N-labelled NDM-1; Estimated binding constant (Kd), residue 205F, Table S5, per-residue fit, NDM-1 205F): 2300 µM | Kd (15N-labelled NDM-1; Estimated binding constant (Kd), residue 211K, Table S5, per-residue fit, NDM-1 211K): 140 µM | Kd (15N-labelled NDM-1; Estimated binding constant (Kd), residue 213S, Table S5, per-residue fit, NDM-1 213S): 390 µM | Kd (15N-labelled NDM-1; Estimated binding constant (Kd), residue 214K, Table S5, per-residue fit, NDM-1 214K): 570 µM | Kd (15N-labelled NDM-1; Estimated binding constant (Kd), residue 217S, Table S5, per-residue fit, NDM-1 217S): 3060 µM | Kd (15N-labelled NDM-1; Estimated binding constant (Kd), residue 228H, Table S5, per-residue fit, NDM-1 228H): 3080 µM | Kd (15N-labelled NDM-1; Estimated binding constant (Kd), residue 229Y, Table S5, per-residue fit, NDM-1 229Y): 340 µM | Kd (15N-labelled NDM-1; Estimated binding constant (Kd), residue 230A, Table S5, per-residue fit, NDM-1 230A): 180 µM | Kd (15N-labelled NDM-1; Estimated binding constant (Kd), residue 248M, Table S5, per-residue fit, NDM-1 248M): 780 µM | Kd (15N-labelled NDM-1; Estimated binding constant (Kd), residue 251S, Table S5, per-residue fit, NDM-1 251S): 1820 µM | Kd (15N-labelled NDM-1; Estimated binding constant (Kd), residue 252A, Table S5, per-residue fit, NDM-1 252A): 480 µM | Kd (15N-labelled NDM-1; Estimated binding constant (Kd), residue 254D, Table S5, per-residue fit, NDM-1 254D): 7530 µM | Kd (15N-labelled NDM-1; Estimated binding constant (Kd), residue 255S, Table S5, per-residue fit, NDM-1 255S): 9910 µM | Kd (15N-labelled NDM-1; NDM-1 Kd, NMR chemical shift perturbation, 0-16 equiv. ligand, pH 7.0, 310 K): 500 ± 100 µM
